Values quoted from earlier work, collected in patent publication US12447174B2, “Microdaily EMF protects against oxidative and inflammatory damage, and acute and late adverse effects of EMF radiation” (priority 2021, dated 2025).
“Also recorded” adds a separate entry of the source. Values belong to the compound of their own block, whether it stands above or below them.

Experiments:
porcine blood platelets = settings: 1 KHz, 220 V/m, 30 and 60 minutes
hippocampus of rats = settings: prenatal exposure to 900 MHz EMF radiation
[1] = tested on: rats exposed to 900 MHz radiation; settings: compared to EMF irradiated animals not receiving luteolin
[2] = tested on: Human embryonic kidney cells (HEK293); settings: HEK293, 2.4 GHz for 1 h, treatment before exposure
kidney of rats = settings: 900 MHz
[3] = tested on: patients with Alzheimer's disease
heart disease = settings: humans
rats = settings: EMF radiation emitted from mobile phones, supplementation
[4] = tested on: workers chronically exposed to ELF-EMF radiation from high voltage electricity
N9 microglia cells = N9 microglia cells in culture
[5] = tested on: microglia cells in culture
[6] = tested on: hippocampus and cerebellum of rats; settings: RF-EMF 900 MHz 60 min/day for 21 days
male heavy smokers = settings: beta-carotene alone

Compound: vitamin A
- EMF-induced increase in malondialdehyde (MDA) levels (porcine blood platelets): significantly attenuated such changes; also recorded: significantly attenuated this damage

Compound: omega-3-fatty acids
- EMF radiation-induced neuronal damage in the hippocampus (hippocampus of rats): prevented EMF radiation-induced neuronal damage

Compound: O=c1cc(-c2ccc(O)c(O)c2)oc2cc(O)cc(O)c12 [luteolin]
- numbers of Leydig cells, primary spermatocytes, and spermatids [1]: enhanced the number of these cells

Compound: [Se] [selenium]
- EMF radiation-induced biochemical changes (MDA, SOD, glutathione peroxidase, apoptosis, caspase-3, Bcl2) [2]: reduced such EMF radiation-induced biochemical changes

Compound: COc1ccc2[nH]cc(CCNC(C)=O)c2c1 [melatonin]
- EMF radiation induced oxidative damage in the kidney (kidney of rats): prevented
- EMF radiation-induced neuronal damage in the hippocampus (hippocampus of rats): prevented EMF radiation-induced neuronal damage

Compound: Vitamin E
- rate of decline in cognitive function ([3]; early phase of Alzheimer's disease): reduced the rate of decline in cognitive function
- treatment effect in Alzheimer's disease ([3]; patients with Alzheimer's disease): ineffective
- effect in heart disease on primary and most secondary outcomes (heart disease): ineffective

Compound: vitamin D
- EMF radiation impaired immune function (rats): mitigated

Compound: Oc1ccc(C=Cc2cc(O)cc(O)c2)cc1 [resveratrol]
- increased oxidative stress (damage) from ELF-EMF radiation [4]: reduced this damage

Compound: CC(C)(C)c1nc2c3cc[nH]c(=O)c3c3cc(F)ccc3c2[nH]1 [pyridone 6]
- EMF radiation induced inflammatory responses (N9 microglia cells): suppressed EMF radiation induced inflammatory responses

Compound: COc1cc(/C=C/C(=O)CC(=O)/C=C/c2ccc(O)c(OC)c2)ccc1O [Curcumin]
- EMF-induced elevation of pro-inflammatory cytokines [5]: prevented
- EMF-induced reduced phagocytic activity [5]: prevented

Compound: Nc1nc2ncc(CNc3ccc(C(=O)N[C@@H](CCC(=O)O)C(=O)O)cc3)nc2c(=O)[nH]1 [folic acid]
- reduction in pyramidal and granular cells in hippocampus and dentate gyres and Purkinje cell number in cerebellum [6]: decreased these changes

- risk of lung cancer (male heavy smokers): increased the risk of lung cancer
Compound: CC1=C(/C=C/C(C)=C/C=C/C(C)=C/C=C/C=C(C)/C=C/C=C(C)/C=C/C2=C(C)CCCC2(C)C)C(C)(C)CCC1 [beta-carotene]
